In series [1] the test system is BMDM. Nature of the series: Cytotoxicity against mouse Bone marrow macrophage at 10 uM measured after 72 hrs by MTT assay. The format is toxicity, cell-based. (In general: Formazan colour is commonly taken as a measure of viable cells.)
For series [2], the system named is BMDM. The series can be described thus: cells. To be noted: Mus musculus, 144 h, read-out: INH.
Description: Inhibition of osteoclastogenesis in C57BL/6J mouse Bone marrow macrophage cells assessed as inhibition of RANKL-stimulated osteoclast formation at 10 uM measured after 6 days by tartrate-resistant acid phosphatase (TRAP) staining assay relative to control
Series [3] deals with BMDM. The series can be described thus: Inhibition of osteoclastogenesis in C57BL/6J mouse Bone marrow macrophage cells assessed as inhibition of RANKL-stimulated osteoclast formation measured after 6 days by tartrate-resistant acid phosphatase (TRAP) staining assay. To be noted: 144 h.
Series [4] deals with T1, Peroxisome proliferator-activated receptor gamma (Homo sapiens, UniProt P37231).
T1 sequence (P37231 whole entry): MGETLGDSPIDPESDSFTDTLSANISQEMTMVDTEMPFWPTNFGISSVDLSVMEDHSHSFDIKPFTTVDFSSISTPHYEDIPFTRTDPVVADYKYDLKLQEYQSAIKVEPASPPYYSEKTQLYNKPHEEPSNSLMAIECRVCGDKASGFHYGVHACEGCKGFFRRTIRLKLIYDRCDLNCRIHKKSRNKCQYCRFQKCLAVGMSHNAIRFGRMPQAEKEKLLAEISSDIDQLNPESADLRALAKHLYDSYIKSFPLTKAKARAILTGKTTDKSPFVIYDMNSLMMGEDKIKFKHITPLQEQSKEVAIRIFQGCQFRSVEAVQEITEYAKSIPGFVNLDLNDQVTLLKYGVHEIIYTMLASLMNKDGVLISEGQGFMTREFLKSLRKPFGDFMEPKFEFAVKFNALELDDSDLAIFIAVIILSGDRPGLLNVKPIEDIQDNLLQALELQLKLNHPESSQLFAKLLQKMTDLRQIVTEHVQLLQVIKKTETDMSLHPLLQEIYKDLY
Nature of the series: Antagonist activity at PPAR gamma LBD (203 to 476 residues) (unknown origin) expressed in HEK293T cells co-transfected with pCMV-GAL4-PPARgamma-LBD-SV40-Renilla-luciferase assessed as reduction of rosiglitazone induced PPAR-gamma activation incubated for 24 hrs by dural-luciferase reporter assay. It is filed as cell-based.

The target in series [5] is Nuclear receptor corepressor 1 (Homo sapiens) (UniProt O75376). Nature of the series: Effect on NCoR recruitment (unknown origin) at 10 uM incubated for 24 hrs by TR-FRET assay. For orientation: In TR-FRET formats the signal depends on donor and acceptor labels being close together.
Series [6] addresses T2, Peroxisome proliferator-activated receptor gamma coactivator 1-alpha (Homo sapiens) (UniProt Q9UBK2).
T2 sequence (whole entry): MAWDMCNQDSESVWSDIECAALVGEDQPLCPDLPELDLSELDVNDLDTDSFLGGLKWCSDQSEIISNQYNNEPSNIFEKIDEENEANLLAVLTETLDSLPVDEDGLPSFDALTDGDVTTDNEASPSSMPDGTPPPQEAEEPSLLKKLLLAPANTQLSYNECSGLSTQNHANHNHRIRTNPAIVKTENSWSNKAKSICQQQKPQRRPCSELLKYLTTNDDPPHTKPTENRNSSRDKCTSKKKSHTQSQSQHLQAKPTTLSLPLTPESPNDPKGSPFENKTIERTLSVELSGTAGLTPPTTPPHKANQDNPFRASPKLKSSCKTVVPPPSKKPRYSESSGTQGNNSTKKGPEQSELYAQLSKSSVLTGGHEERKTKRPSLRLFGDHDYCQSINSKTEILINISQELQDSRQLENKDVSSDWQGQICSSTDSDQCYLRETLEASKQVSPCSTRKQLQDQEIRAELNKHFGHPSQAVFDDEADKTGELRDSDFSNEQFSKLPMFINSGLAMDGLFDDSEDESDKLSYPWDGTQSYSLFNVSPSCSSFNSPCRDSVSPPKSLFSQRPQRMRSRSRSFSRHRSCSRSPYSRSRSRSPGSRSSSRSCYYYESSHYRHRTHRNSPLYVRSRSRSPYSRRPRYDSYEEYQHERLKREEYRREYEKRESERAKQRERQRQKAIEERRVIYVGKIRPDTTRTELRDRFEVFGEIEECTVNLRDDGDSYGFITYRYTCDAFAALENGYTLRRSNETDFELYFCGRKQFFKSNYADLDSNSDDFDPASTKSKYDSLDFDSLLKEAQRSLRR
Nature of the series: Effect on PGC-1 alpha recruitment (unknown origin) incubated for 24 hrs at 10 uM by TR-FRET assay.

Series [7] concerns the target T1, Peroxisome proliferator-activated receptor gamma. Nature of the series: Binding affinity to PPAR gamma LBD (203 to 476 residues) (unknown origin) extracted from Escherichia coli BL21 (DE3) cells assessed as dissociation constant in presence of rosiglitazone by Isothermal titration calorimetry method. On the technique in general: ITC needs no label: the signal is the heat of the interaction.

Series [8] deals with BMDM. Nature of the series: Inhibition of osteoclastogenesis in C57BL/6J mouse Bone marrow macrophage cells assessed as inhibition of RANKL-stimulated osteoclast formation at 10 uM measured after 7 days in presence of rosiglitazone by tartrate-resistant acid phosphatase (TRAP) staining assay. It is filed as functional, cell-based. To be noted: time 7.0 day.
Series [9] addresses T1, Peroxisome proliferator-activated receptor gamma. Nature of the series: Binding affinity to PPAR gamma LBD (203 to 476 residues) (unknown origin) extracted from Escherichia coli BL21 (DE3) cells assessed as dissociation constant by Isothermal titration calorimetry method.
The test system of series [10] is BMDM. The series can be described thus: Inhibition of osteoclastogenesis in C57BL/6J mouse Bone marrow macrophage cells assessed as inhibition of RANKL-stimulated osteoclast formation at 10 uM measured after 7 days by tartrate-resistant acid phosphatase (TRAP) staining assay. To be noted: time 7.0 day. It is filed as functional, cell-based.

The source made the active and inactive calls. No cut-off for these calls is given here.

Sequence of Nuclear receptor corepressor 1 (Homo sapiens) (O75376 whole entry): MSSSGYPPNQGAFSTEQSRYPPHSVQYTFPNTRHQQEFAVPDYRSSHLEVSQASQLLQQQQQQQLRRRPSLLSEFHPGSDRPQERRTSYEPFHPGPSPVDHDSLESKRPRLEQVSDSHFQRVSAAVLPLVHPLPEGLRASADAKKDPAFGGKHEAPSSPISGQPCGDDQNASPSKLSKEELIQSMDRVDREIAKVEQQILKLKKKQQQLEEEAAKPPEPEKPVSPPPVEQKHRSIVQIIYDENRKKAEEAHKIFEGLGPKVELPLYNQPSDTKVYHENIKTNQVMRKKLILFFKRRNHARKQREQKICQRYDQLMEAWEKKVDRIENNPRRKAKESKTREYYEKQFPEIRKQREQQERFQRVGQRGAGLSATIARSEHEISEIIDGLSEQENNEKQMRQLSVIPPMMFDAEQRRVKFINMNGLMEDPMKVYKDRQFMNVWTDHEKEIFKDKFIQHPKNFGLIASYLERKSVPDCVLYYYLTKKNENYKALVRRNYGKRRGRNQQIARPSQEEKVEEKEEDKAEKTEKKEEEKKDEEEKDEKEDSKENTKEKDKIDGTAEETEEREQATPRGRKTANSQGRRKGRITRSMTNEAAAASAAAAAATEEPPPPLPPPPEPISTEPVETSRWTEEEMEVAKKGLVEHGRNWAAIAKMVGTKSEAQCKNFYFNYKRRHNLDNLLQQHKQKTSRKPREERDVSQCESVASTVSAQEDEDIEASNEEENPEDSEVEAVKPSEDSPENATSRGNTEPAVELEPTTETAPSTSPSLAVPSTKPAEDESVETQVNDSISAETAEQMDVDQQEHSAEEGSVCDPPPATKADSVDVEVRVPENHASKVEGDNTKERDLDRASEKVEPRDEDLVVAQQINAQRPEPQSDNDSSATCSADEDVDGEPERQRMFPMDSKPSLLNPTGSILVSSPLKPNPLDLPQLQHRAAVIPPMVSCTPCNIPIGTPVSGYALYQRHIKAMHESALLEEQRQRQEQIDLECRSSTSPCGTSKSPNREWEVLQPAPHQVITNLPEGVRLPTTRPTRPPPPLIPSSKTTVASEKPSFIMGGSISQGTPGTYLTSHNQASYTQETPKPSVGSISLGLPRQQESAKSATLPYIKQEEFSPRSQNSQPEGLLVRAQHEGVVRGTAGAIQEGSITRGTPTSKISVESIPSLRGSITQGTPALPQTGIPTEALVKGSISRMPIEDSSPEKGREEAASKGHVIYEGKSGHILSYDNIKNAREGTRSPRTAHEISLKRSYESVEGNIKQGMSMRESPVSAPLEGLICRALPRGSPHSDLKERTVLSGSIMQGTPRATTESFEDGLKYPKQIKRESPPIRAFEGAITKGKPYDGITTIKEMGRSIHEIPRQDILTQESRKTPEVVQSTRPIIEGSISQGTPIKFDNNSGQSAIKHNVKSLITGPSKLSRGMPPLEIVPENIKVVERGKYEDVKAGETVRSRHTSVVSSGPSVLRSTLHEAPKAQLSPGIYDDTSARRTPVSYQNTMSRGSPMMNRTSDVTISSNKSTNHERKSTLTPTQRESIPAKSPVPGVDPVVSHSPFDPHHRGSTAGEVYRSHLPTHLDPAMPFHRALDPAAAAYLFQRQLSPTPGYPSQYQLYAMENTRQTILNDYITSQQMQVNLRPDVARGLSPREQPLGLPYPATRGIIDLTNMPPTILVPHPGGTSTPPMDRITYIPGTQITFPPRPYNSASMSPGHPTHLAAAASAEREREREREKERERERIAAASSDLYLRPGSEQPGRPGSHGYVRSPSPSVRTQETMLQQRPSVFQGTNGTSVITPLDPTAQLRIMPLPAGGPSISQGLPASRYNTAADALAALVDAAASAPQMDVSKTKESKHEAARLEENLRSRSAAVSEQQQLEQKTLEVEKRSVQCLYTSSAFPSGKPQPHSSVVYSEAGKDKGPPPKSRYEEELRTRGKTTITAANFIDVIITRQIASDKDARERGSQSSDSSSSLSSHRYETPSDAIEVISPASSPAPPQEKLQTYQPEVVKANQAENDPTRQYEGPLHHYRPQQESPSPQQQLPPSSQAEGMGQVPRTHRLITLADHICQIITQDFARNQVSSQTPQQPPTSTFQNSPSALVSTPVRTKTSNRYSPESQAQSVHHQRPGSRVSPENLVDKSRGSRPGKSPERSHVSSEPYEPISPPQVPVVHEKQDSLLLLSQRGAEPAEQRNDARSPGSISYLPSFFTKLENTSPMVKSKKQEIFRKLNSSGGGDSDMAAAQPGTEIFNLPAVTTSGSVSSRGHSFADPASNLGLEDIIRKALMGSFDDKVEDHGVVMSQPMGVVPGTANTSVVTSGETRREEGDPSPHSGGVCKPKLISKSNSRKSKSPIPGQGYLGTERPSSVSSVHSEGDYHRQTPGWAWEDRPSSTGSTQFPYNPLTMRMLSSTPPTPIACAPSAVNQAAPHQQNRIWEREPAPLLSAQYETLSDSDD

Regarding `C/C=C(\C)C(=O)O[C@@H](C[C@@]1(C)[C@H](C)C[C@H](OC(C)=O)[C@]2(COC(C)=O)[C@@H]1[C@H](O)CC[C@]21CO1)C1=CC(=O)OC1`, in the series with BMDM [1], the Activity result is recorded as “Non-Toxic”. Also, the inhibition at 10 µM with BMDM [2] was greater than 50%. The IC50 – broadly, the concentration at which inhibition is half-maximal – in the series with BMDM [3] is 4.68 µM; in series [4] it was 19.5 µM.
For `NCCCC(O)(P(=O)(O)O)P(=O)(O)O` [ALENDRONIC ACID], in the series on BMDM [2], the inhibition at 10 µM is greater than 50%. For the same compound, the IC50 in the series on BMDM [3] was found to be 4.22 µM.
Turning to `C/C=C(\C)C(=O)OC[C@@]12[C@@H](OC(C)=O)C[C@@H](C)[C@](C)(CCC3=CC(=O)OC3)[C@H]1CCC[C@]21CO1` [AJUGACUMBIN A], the outcome in series [5] and in series [6] was inactive. The Activity result in the series with BMDM [1] is listed as “Non-Toxic”. Further, the figures for the Kd in series [7] and in series [9] were 79.5 µM and 17.7 µM, respectively. Besides, the inhibition entry in the series on BMDM [8] and with BMDM [10] was “Active” throughout. Moreover, the inhibition at 10 µM in the series on BMDM [2] was greater than 50%. Also, the IC50 was 1.92 µM with BMDM [3] and 8.35 µM in series [4].
Regarding `C/C=C(\C)C(=O)OC[C@@]12[C@H](CCC[C@]1(O)CCl)[C@@](C)(C[C@H](O)C1=CC(=O)OC1)[C@H](C)C[C@@H]2O`, the Activity result with BMDM [1] is reported as “Non-Toxic”. In the series with BMDM [2], the inhibition at 10 µM is greater than 50%. Besides, the results for the IC50 (in the series with BMDM [3]; in [4]) were 1.72 µM and 11.5 µM, respectively.
For `CCC(C)C(=O)O[C@@H](C[C@@]1(C)[C@H](C)C[C@H](O)[C@]2(C)[C@@H]1CCC[C@H]2C(=O)OC)C1=CC(=O)OC1` (stereo partly drawn), in that order: “Non-Toxic”, greater than 50%, 1.23 µM and 13 µM.
For `COC(=O)[C@@H]1CCC[C@@H]2[C@@](C)(C[C@H](OC(=O)C(C)C)C3=CC(=O)OC3)[C@H](C)C[C@H](O)[C@]21C`, in that order: “Non-Toxic”, greater than 50%, 1.79 µM and 12.5 µM.
For the compound `C/C=C(\C)C(=O)O[C@@H](C[C@@]1(C)[C@H](C)C[C@H](OC(C)=O)[C@]2(COC(C)=O)[C@@H]1CCC[C@]21CO1)C1=CC(=O)OC1` [AJUGANIPPONIN B], the result in [5] and in series [6] was inactive. The Activity result in the series on BMDM [1] is “Non-Toxic”. In addition, the Kd (as a rule, the free concentration of one partner at which half of the binding sites on the other are occupied at equilibrium, for simple one-to-one binding) in series [7] amounted to 127 µM; in series [9], 16 µM. Further, the inhibition result in the series with BMDM [8] and with BMDM [10] was “Active” in each case. The inhibition at 10 µM in the series on BMDM [2] is greater than 50%. Also, the IC50 with BMDM [3] turned out to be 0.97 µM; in [4], 6.99 µM.
Regarding `CC(=O)OC[C@@]12[C@@H](OC(C)=O)C[C@@H](C)[C@](C)(C[C@H](OC(C)=O)C3=CC(=O)OC3)[C@H]1CCC[C@]21CO1`, the Activity entry in the series on BMDM [1] is on record as “Non-Toxic”. The inhibition at 10 µM with BMDM [2] was greater than 50%. Moreover, the results for the concentration for half-maximal inhibition (IC50) (in the series on BMDM [3]; in series [4]) were 2.73 µM and 13.2 µM, respectively.
On to `C/C=C(\C)C(=O)OC[C@@]12[C@@H](OC(C)=O)C[C@@H](C)[C@](C)(CCC3=CC(=O)OC3)[C@H]1CCC[C@]2(O)CCl` [AJUGACUMBIN A CHLOROHYDRIN], for which, in the series on BMDM [1], the Activity result was “Non-Toxic”. Moreover, in the series on BMDM [2], the inhibition at 10 µM is greater than 50%. Moreover, the IC50 with BMDM [3] turned out to be 1.11 µM; in series [4], 10.2 µM.
As to `C/C=C(\C)C(=O)O[C@@H](C[C@@]1(C)[C@H](C)C[C@H](O)[C@]2(C)[C@@H]1CCC[C@H]2C(=O)OC)C1=CC(=O)OC1`, the Activity entry in the series on BMDM [1] is given as “Non-Toxic”. In addition, the inhibition at 10 µM in the series with BMDM [2] was greater than 50%. For the same compound, the IC50 in the series with BMDM [3] amounted to 1.42 µM.
On to `C/C=C(\C)C(=O)OC[C@@]12[C@H](CCC[C@]13CO3)[C@@](C)(C[C@H](O)C1=CC(=O)OC1)[C@H](C)C[C@@H]2O`, for which the Activity entry with BMDM [1] is listed as “Non-Toxic”. In addition, in the series on BMDM [2], the inhibition at 10 µM was greater than 50%. Moreover, the IC50 with BMDM [3] came to 3.23 µM; in [4], 11.5 µM.
In the same order, the values of `CC(=O)OC[C@@]12[C@@H](OC(C)=O)C[C@@H](C)[C@](C)(CCC3=CC(=O)OC3)[C@H]1CCC[C@]21CO1` [AJUGARIN I] are “Non-Toxic”, greater than 50%, 3.71 µM and 12 µM.
As for `C/C=C(\C)C(=O)OC[C@@]12[C@H](CCC[C@]1(O)CCl)[C@@](C)(CCC1=CC(=O)OC1)[C@H](C)C[C@@H]2O`, the Activity entry in the series with BMDM [1] is “Non-Toxic”. Also, the inhibition at 10 µM with BMDM [2] is greater than 50%. Also, the IC50 with BMDM [3] worked out at 1.77 µM; in series [4], 10.4 µM.
Regarding `C/C=C(\C)C(=O)OC[C@]12C(=O)CCC[C@@H]1[C@@](C)(CCC1=CC(=O)OC1)[C@H](C)CC2=O`, the Activity entry in the series with BMDM [1] is given as “Non-Toxic”. Besides, the IC50 in the series with BMDM [3] is 2.71 µM; in series [4] it was 13.3 µM.
For `CC(=O)OC[C@@]12[C@@H](OC(C)=O)C[C@@H](C)[C@](C)(C[C@H](OC(C)=O)C3=CC(=O)OC3)[C@H]1[C@H](O)CC[C@]21CO1`, in the series with BMDM [1], the Activity entry is reported as “Non-Toxic”. Besides, the inhibition at 10 µM in the series with BMDM [2] is greater than 50%. For the same compound, the IC50 was 5.1 µM with BMDM [3] and 13 µM in series [4].

Values taken from ChEMBL document CHEMBL5579883, “Discovery of Novel Neo-Clerodane Derivatives as Potent Dual-Functional Antiosteoporosis Agents through Targeting Peroxisome Proliferator-Activated Receptor-γ” (J Med Chem, 2024).
